Assays:
[1] = Aerosol particle size distribution by Anderson Cascade Impactor; assay type: physicochemical; details: heat-oxidized perforated 316 stainless steel; for Average MMAD (μm): 28.3 liters/minute; for GSD / MMAD (μm): approx. 0.07 mg/cm^2, 28.3 liters/minute
Source text: An Anderson Cascade Impactor (ACI), an inertial impaction size separating device, was used to determine the particle size distribution of the aerosol. The ACI consists of several stages, with each successive stage having a smaller size cutoff. By extracting and determining the mass of drug deposited at each stage, it is possible to estimate the particle size distribution of the aerosol. The ACI was placed immediately downstream from the screening apparatus. Again, the airway and substrate were extracted to determine the mass balance for each actuation of the device.

[2] = Aerosol purity of condensation aerosol vaporized from drug-coated substrate in substrate screening apparatus (HPLC of filter extract); assay type: physicochemical; details: heat-oxidized perforated 316 stainless steel
Source text: The substrate screening apparatus 400 is made of a machined plastic (polyoxymethylene, DELRIN® Acetal Resin, DuPont, Wilmington, DE) block 402 with a 2 cm^2 cross-sectional area for mounting a substrate 412. Block 402 includes a first airway 404 extending from first inlet 414 to outlet 422. Block 402 also include a second airway 406 extending from second inlet 416 to substrate 412, where it typically joins the first airway. The substrate 412 is mounted in the substrate screening apparatus 400 across two electrodes 420. A first air flow 414 is established in first airway 404 and a second air flow 416 is established in second airway 406 such that the second air flow 416 passes from the second airway 406 to first airway 404 through holes in the substrate 412. While providing air flows 414 and 416, the substrate 412 is heated, typically by discharging a capacitor (not shown) across the substrate 412. In a one embodiment, the flow of air passing through holes in the substrate 412 is in a direction orthogonal to that of air flow 414. Substrate 412 is coated with a drug composition film. The substrate 412 is heated to vaporized all or a portion of the drug composition. The vaporized drug subsequently cools and condenses to form a condensation aerosol that is carried to the outlet by air flow 414, joined by air flow 416). Accordingly, the condensation aerosol is emitted from the outlet 422.
The test substrates were then coated with a drug composition. The drug was typically dissolved in a volatile organic solvent (e.g., dichloromethane/methanol mixture or acetone or other suitable organic solvent) and then spray-coated onto the test substrates using an automated spray coater. Coating parameters, such as the drug concentration in the coating solution, solution flow rate, were selected to obtain a uniform drug coating of the desired coating density (i.e., mass/area).
Total air flow through the substrate screening apparatus was set by providing air flows 414 and 416 at a desired ratio. (As used herein, “across” air flow refers to air flow 414 and “bottom” air flow refers to air flow 416.) Brass electrodes 420 attached to the substrate screening apparatus 400 were used to clamp the substrate 412 in place and provide electrical connections. For most experiments, a 1-Farad capacitor was used as the energy source. The capacitor was typically charged to 11-14 volts, depending on the desired substrate temperature. A high current relay was used to connect the circuit and discharge the capacitor across the substrate to induce heating and vaporization of the drug.
FIG. 5 is a schematic of another embodiment of a substrate screening apparatus 500 that was used to direct air flow through the holes of coated polyimide film (KAPTON® polyimide film) substrates (see FIGS. 2A and 2B). Substrate screening apparatus 500 is similar in configuration and operation to substrate screening apparatus 400, with the exception that substrate screening apparatus 500 includes two electrodes 502 on the same side of the screening apparatus 500, whereas substrate screening apparatus 400 includes two electrodes 420 on opposite sides of the screening apparatus 400. In the examples using polyimide film substrates described below, a polyimide film substrate coated with a drug composition was placed in substrate screening apparatus 500 across electrodes 502. A computer-controlled power supply was connected to the electrodes. The power supply was typically capable of heating the polyimide film substrate to the target temperature within 300 milliseconds, and the substrate was kept at the target temperature for a duration of 1 second.
To determine aerosol purity and emitted dose, a 2 μm Teflon filter (ZEFLUOR PTFE filters, available from Zefon International, Inc., Ocala, FL) was placed immediately downstream from the screening apparatus during aerosol generation. […]

Average MMAD (μm) ([1]; coating density 0.08 mg/cm^2, across:bottom 90:10): 2.2 μm
Average MMAD (μm) ([1]; coating density 0.26 mg/cm^2, across:bottom 90:10): 1.6 μm
Average MMAD (μm) ([1]; coating density 0.58 mg/cm^2, across:bottom 0:100): 0.9 μm
Average MMAD (μm) ([1]; coating density 0.58 mg/cm^2, across:bottom 90:10): 1.9 μm
Average MMAD (μm) ([1]; coating density 0.58 mg/cm^2, across:bottom 100:0): 1.7 μm
GSD ([1]; across:bottom 0:100): 2.4 ± 0.1
MMAD (μm) ([1]; across:bottom 0:100): 0.4 ± 0.0 μm
GSD ([1]; across:bottom 90:10): 2.0 ± 0.1
MMAD (μm) ([1]; across:bottom 90:10): 2.7 ± 0.1 μm
GSD ([1]; across:bottom 100:0): 4.0 ± 0.5
MMAD (μm) ([1]; across:bottom 100:0): 3.6 ± 0.5 μm
aerosol purity ([2]; 0.07 mg/cm^2, 20 liters/minute, as little as 5% of air flow through the substrate): 98%
Emitted Aerosol Purity (%) ([2]; 20 liters/minute, across:bottom 0:100): 98.5%
aerosol purity ([2]; 20 liters/minute, across:bottom 0:100, coating density 0.08 mg/cm^2): 99.3 ± 0.1
Mean Aerosol Purity (%) ([2]; 20 liters/minute, across:bottom 0:100, coating density 0.10 mg/cm^2): 98.8%
Mean Aerosol Purity (%) ([2]; 20 liters/minute, across:bottom 0:100, coating density 0.14 mg/cm^2): 98.8%
aerosol purity ([2]; 20 liters/minute, across:bottom 0:100, coating density 0.26 mg/cm^2): 98.9 ± 0.1
aerosol purity ([2]; 20 liters/minute, across:bottom 0:100, coating density 0.58 mg/cm^2): 98.7 ± 0.3
Emitted Aerosol Purity (%) ([2]; 20 liters/minute, across:bottom 50:50): 98.4%
Mean Aerosol Purity (%) ([2]; 20 liters/minute, across:bottom 50:50, coating density 0.10 mg/cm^2): 98.8%
Mean Aerosol Purity (%) ([2]; 20 liters/minute, across:bottom 50:50, coating density 0.14 mg/cm^2): 98.9%
aerosol purity ([2]; 20 liters/minute, across:bottom 90:10, coating density 0.08 mg/cm^2): 99.2 ± 0.1
aerosol purity ([2]; 20 liters/minute, across:bottom 90:10, coating density 0.26 mg/cm^2): 98.6 ± 0.1
aerosol purity ([2]; 20 liters/minute, across:bottom 90:10, coating density 0.58 mg/cm^2): 98.4 ± 0.3
Emitted Aerosol Purity (%) ([2]; 20 liters/minute, across:bottom 100:0): 96.4%
aerosol purity ([2]; 20 liters/minute, across:bottom 100:0, coating density 0.08 mg/cm^2): 95.8 ± 0.6
Mean Aerosol Purity (%) ([2]; 20 liters/minute, across:bottom 100:0, coating density 0.10 mg/cm^2): 95.7%
Mean Aerosol Purity (%) ([2]; 20 liters/minute, across:bottom 100:0, coating density 0.14 mg/cm^2): 94.8%
aerosol purity ([2]; 20 liters/minute, across:bottom 100:0, coating density 0.26 mg/cm^2): 94.8 ± 0.2
aerosol purity ([2]; 20 liters/minute, across:bottom 100:0, coating density 0.58 mg/cm^2): 90.7 ± 0.4
SMILES: CCCCNc1cc(C(=O)O)cc(S(N)(=O)=O)c1Oc1ccccc1 [Bumetanide, bumetanide]

Source: patent US12138383B2, “Heating unit for use in a drug delivery device” (ALEXZA PHARMACEUTICALS, INC., priority 2007, dated 2024)
